Data published in PubChem BioAssay AID248 (DTP/NCI, 2004).
“And” between values parts separate entries of the source, which are not always exact repeats. Equal values may be shown once. Toxic doses and inconclusive results are not listed. No stated cut-off is given here; in the data, active means T/C of 150% or more; inactive means T/C below 125%.

Test system: L1210 leukemia ip in BDF1 mice, survival T/C
Assay: NCI In Vivo Anticancer Drug Screen. Data for tumor model L1210 Leukemia (intraperitoneal) in B6D2F1 (BDF1) mice
Conditions: endpoint: mean survival time, higher = longer survival
Outline: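 Value reflects the ratio of survival in compound-treated mice to survival in vehicle-treated controls, with both groups carrying the same transplanted tumor.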

[1] = dose: 50.0 mg/kg/injection, schedule: Q01DX009 (ip), vehicle: saline
[2] = dose: 100.0 mg/kg/injection, schedule: Q01DX009 (ip), vehicle: saline
[3] = dose: 200.0 mg/kg/injection, schedule: Q01DX009 (ip), vehicle: saline
[4] = dose: 400.0 mg/kg/injection, schedule: Q01DX009 (ip), vehicle: saline
[5] = dose: 50.0 mg/kg/injection, schedule: Q01DX009 (ip), vehicle: Klucel (hydroxypropylcellulose) (HPC)
[6] = dose: 100.0 mg/kg/injection, schedule: Q01DX009 (ip), vehicle: Klucel (hydroxypropylcellulose) (HPC)
[7] = dose: 100.0 mg/kg/injection, schedule: Q04DX003 (ip), vehicle: Klucel (hydroxypropylcellulose) (HPC)
[8] = dose: 200.0 mg/kg/injection, schedule: Q01DX009 (ip), vehicle: Klucel (hydroxypropylcellulose) (HPC)
[9] = dose: 200.0 mg/kg/injection, schedule: Q04DX003 (ip), vehicle: Klucel (hydroxypropylcellulose) (HPC)
[10] = dose: 400.0 mg/kg/injection, schedule: Q04DX003 (ip), vehicle: Klucel (hydroxypropylcellulose) (HPC)
[11] = dose: 100.0 mg/kg/injection, schedule: Q01DX001 (ip), vehicle: Klucel (hydroxypropylcellulose) (HPC)
[12] = dose: 200.0 mg/kg/injection, schedule: Q01DX001 (ip), vehicle: Klucel (hydroxypropylcellulose) (HPC)
[13] = dose: 400.0 mg/kg/injection, schedule: Q01DX001 (ip), vehicle: Klucel (hydroxypropylcellulose) (HPC)
[14] = dose: 100.0 mg/kg/injection, schedule: Q04DX003 (ip), vehicle: saline with Tween-80
[15] = dose: 200.0 mg/kg/injection, schedule: Q04DX003 (ip), vehicle: saline with Tween-80
[16] = dose: 400.0 mg/kg/injection, schedule: Q04DX003 (ip), vehicle: saline with Tween-80
[17] = dose: 100.0 mg/kg/injection, schedule: Q01DX001 (ip), vehicle: carboxymethylcellulose (CMC)
[18] = dose: 200.0 mg/kg/injection, schedule: Q01DX001 (ip), vehicle: carboxymethylcellulose (CMC)
[19] = dose: 100.0 mg/kg/injection, schedule: Q04DX002 (ip), vehicle: gum acacia
[20] = dose: 200.0 mg/kg/injection, schedule: Q04DX002 (ip), vehicle: gum acacia
[21] = dose: 400.0 mg/kg/injection, schedule: Q04DX002 (ip), vehicle: gum acacia
[22] = dose: 50.0 mg/kg/injection, schedule: Q01DX001 (ip), vehicle: saline
[23] = dose: 200.0 mg/kg/injection, schedule: Q01DX001 (ip), vehicle: saline
[24] = dose: 400.0 mg/kg/injection, schedule: Q01DX001 (ip), vehicle: saline

Measured: T/C

CC(C)(CCC(C)(C)NCCC#N)NCCC#N
inactive: [1] 104 % of control | [2] 104 % of control | dose: 100.0 mg/kg/injection, schedule: Q04DX003 (ip), vehicle: saline 105 % of control | [3] 105 % of control | dose: 200.0 mg/kg/injection, schedule: Q04DX003 (ip), vehicle: saline 103 % of control | [4] 101 % of control | dose: 400.0 mg/kg/injection, schedule: Q04DX003 (ip), vehicle: saline 95 % of control

CC1(C)C2(C)CC12C (stereo unspecified)
inactive: dose: 2.5 mg/kg/injection, schedule: Q01DX009 (ip), vehicle: saline 92 % of control | dose: 5.0 mg/kg/injection, schedule: Q01DX009 (ip), vehicle: saline 91 % of control | dose: 10.0 mg/kg/injection, schedule: Q01DX009 (ip), vehicle: saline 87 % of control

O=C1NC(=O)C2(CCc3ccccc32)N1 (stereo unspecified)
inactive: [5] 105 % of control | [6] 100 % of control | [7] 108 % of control | [8] 98 % of control | [9] 100 % of control | [10] 94 % of control

CSc1nc(N)cc(C(N)=O)n1
inactive: dose: 100.0 mg/kg/injection, schedule: Q01DX Z (ip), vehicle: methylcellulose (MC) 101 % of control

O=C(NCCCCCCCCCCNC(=O)Nc1cccc(C2=NCC(O)CN2)c1)Nc1cccc(C2=NCC(O)CN2)c1 (stereo unspecified)
inactive: dose: 5.25 mg/kg/injection, schedule: Q01DX Z (ip), vehicle: carboxymethylcellulose (CMC) 106 % of control | dose: 10.5 mg/kg/injection, schedule: Q01DX Z (ip), vehicle: carboxymethylcellulose (CMC) 117 % of control | dose: 21.0 mg/kg/injection, schedule: Q01DX Z (ip), vehicle: carboxymethylcellulose (CMC) 103 % of control | dose: 42.0 mg/kg/injection, schedule: Q01DX Z (ip), vehicle: carboxymethylcellulose (CMC) 97 % of control

CC1(c2ccccc2)NC(=O)NC1=O (stereo unspecified)
inactive: [11] 92 % of control | [12] 95 % of control | [13] 95 % of control

C=C1CCOC2(C(O)C(C)(O)CO)NC(=O)C1(O)NC2=O (stereo unspecified)
inactive: dose: 100.0 mg/kg/injection, schedule: Q04DX002 (ip), vehicle: saline 96 % of control | dose: 200.0 mg/kg/injection, schedule: Q04DX002 (ip), vehicle: saline 107 % of control | dose: 400.0 mg/kg/injection, schedule: Q04DX002 (ip), vehicle: saline 104 % of control

Cc1cc(N(C)C)nc(SCc2ccc(F)cc2)n1
inactive: dose: 200.0 mg/kg/injection, schedule: Q01DX Z (ip), vehicle: methylcellulose (MC) 96 % of control

S=c1[nH]n2c(=S)[nH]nc2s1
inactive: [7] 101 % of control | [9] 103 % of control | [10] 93 % of control

Cc1cc(C#N)n(O)c1
inactive: [5] 103 % of control | [6] 100 % of control | [8] 101 % of control

O=S(=O)(Cc1ccccc1)CS(=O)(=O)Cc1ccccc1
inactive: dose: 75.0 mg/kg/injection, schedule: Q04DX003 (ip), vehicle: saline 92 % of control | [14] 106 % of control | dose: 150.0 mg/kg/injection, schedule: Q04DX003 (ip), vehicle: saline 90 % of control | [15] 112 % of control | dose: 300.0 mg/kg/injection, schedule: Q04DX003 (ip), vehicle: saline 87 % of control | [16] 98 % of control

Cc1cccc(C(O)c2cnc(C)n2Cc2ccccc2)c1 (stereo unspecified)
inactive: [11] 90 % of control | [6] 100 % of control and 86 % of control | dose: 100.0 mg/kg/injection, schedule: Q04DX002 (ip), vehicle: Klucel (hydroxypropylcellulose) (HPC) 108 % of control and 89 % of control | [7] 92 % of control | [12] 100 % of control | [8] 97 % of control and 89 % of control | dose: 200.0 mg/kg/injection, schedule: Q04DX002 (ip), vehicle: Klucel (hydroxypropylcellulose) (HPC) 96 % of control | [9] 96 % of control | [13] 97 % of control | dose: 400.0 mg/kg/injection, schedule: Q01DX009 (ip), vehicle: Klucel (hydroxypropylcellulose) (HPC) 93 % of control and 97 % of control | dose: 400.0 mg/kg/injection, schedule: Q04DX002 (ip), vehicle: Klucel (hydroxypropylcellulose) (HPC) 93 % of control and 101 % of control | [10] 94 % of control

COC(=O)C(C(C)C)N(C)C(=O)OC(C)(C)C (stereo unspecified)
inactive: dose: 100.0 mg/kg/injection, schedule: Q01DX001 (ip), vehicle: other 104 % of control | dose: 200.0 mg/kg/injection, schedule: Q01DX001 (ip), vehicle: other 102 % of control | dose: 400.0 mg/kg/injection, schedule: Q01DX001 (ip), vehicle: other 100 % of control

Nc1ncnc(N)c1NC(=O)c1cc(Br)c(OCc2ccccc2)c(Br)c1
inactive: dose: 100.0 mg/kg/injection, schedule: Q01DX001 (ip), vehicle: DMSO 95 % of control | dose: 200.0 mg/kg/injection, schedule: Q01DX001 (ip), vehicle: DMSO 95 % of control | dose: 400.0 mg/kg/injection, schedule: Q01DX001 (ip), vehicle: DMSO 95 % of control

CCCCOC(=O)c1ccc(OC(=O)Nc2cc(OC)ccc2OC)cc1
inactive: [14] 95 % of control | [15] 91 % of control | [16] 90 % of control

CCCCCCCCCCCCCCCCS(=O)(=O)N/N=C/c1ccc(N(C)C)cc1
inactive: [17] 92 % of control | [18] 87 % of control | dose: 400.0 mg/kg/injection, schedule: Q01DX001 (ip), vehicle: carboxymethylcellulose (CMC) 89 % of control

NC(=O)C(N)CSCc1ccccc1 (stereo unspecified)
inactive: [5] 95 % of control | [6] 95 % of control | [2] 89 % of control | [8] 100 % of control | [3] 91 % of control | [4] 91 % of control

Oc1ccc(N=Cc2ccccc2)cc1
inactive: [19] 98 % of control | [20] 109 % of control | [21] 106 % of control

C/C(=N\NC(=O)c1ccc([N+](=O)[O-])cc1)c1ccccc1
inactive: [17] 87 % of control | [18] 87 % of control

OCCN1CC2CCCC1O2 (stereo unspecified)
inactive: [22] 101 % of control | dose: 100.0 mg/kg/injection, schedule: Q01DX001 (ip), vehicle: saline 101 % of control | [23] 103 % of control | [24] 101 % of control

O=S(=O)(Sc1ccc(Cl)cc1)c1ccc(Cl)cc1
inactive: [19] 101 % of control | [20] 107 % of control and 91 % of control | [21] 104 % of control

CCN(CC)C(C)=O
inactive: [22] 87 % of control | [23] 86 % of control | [24] 86 % of control

O=[N+]([O-])c1ccc(N=C=S)cc1
inactive: dose: 25.0 mg/kg/injection, schedule: Q04DX003 (ip), vehicle: Klucel (hydroxypropylcellulose) (HPC) 95 % of control | dose: 50.0 mg/kg/injection, schedule: Q04DX003 (ip), vehicle: Klucel (hydroxypropylcellulose) (HPC) 95 % of control | [7] 93 % of control

CN(C)P(=O)(N(C)C)N(C)C.[Cl][Al]([Cl])[Cl]
inactive: [1] 91 % of control | [2] 88 % of control | [3] 95 % of control
